Tests used:
Type in all cases: cell-based
[1] = test system: IL-2/anti-CD3 stimulated IFNγ in human PBMCs; assay: Inhibition of IL-2/anti-CD3 stimulated IFNγ in human PBMCs; conditions: PBMC, read-out: pIC50 inhibition of IL-2/anti-CD3 stimulated IFNγ (converted)
Experimental: (§1) The potency of the test compound for inhibition of interleukin-2 (IL-2)/anti-CD3 stimulated interferon gamma (IFNγ) was measured in human peripheral blood mononuclear cells (PBMCs) isolated from human whole blood (Stanford Blood Center). Because IL-2 signals through JAK, this assay provides a measure of JAK cellular potency.
(1) Human peripheral blood mononuclear cells (PBMC) were isolated from human whole blood of healthy donors using a ficoll gradient. Cells were cultured in a 37° C., 5% CO2 humidified incubator in RPMI (Life Technologies) supplemented with 10% Heat Inactivated Fetal Bovine Serum (FBS, Life Technologies), 2 mM Glutamax (Life Technologies), 25 mM HEPES (Life Technologies) and 1× Pen/Strep (Life Technologies). Cells were seeded at 200,000 cells/well in media (50 μL) and cultured for 1 h. Compounds were serially diluted in DMSO and then diluted another 500-fold (to a 2× final assay concentration) in media. Test compounds (100 μL/well) were added to cells, and incubated at 37° C., 5% CO2 for 1 h, followed by the addition of IL-2 (R&D Systems; final concentration 100 ng/mL) and anti-CD3 (BD Biosciences; final concentration 1 μg/mL) in pre-warmed assay media (50 μL) for 24 h.
(2) After cytokine stimulation, cells were centrifuged at 500 g for 5 min and supernatants removed and frozen at −80° C. To determine the inhibitory potency of the test compound in response to IL-2/anti-CD3, supernatant IFNγ concentrations were measured via ELISA (R&D Systems). IC50 values were determined from analysis of the inhibition curves of concentration of IFNγ vs compound concentration. Data are expressed as pIC50 (negative decadic logarithm IC50) values.

[2] = test system: IL-2/anti-CD3 stimulated STAT5 phosphorylation in CD4+ T cells; assay: Inhibition of IL-2 stimulated pSTAT5 in CD4+ T cells; conditions: CD4+ T cells in human PBMCs; read-out: pIC50 inhibition of IL-2 stimulated pSTAT5 (converted)
Experimental: as §1, with “STATS phosphorylation” for “interferon gamma (IFNγ)”, “measured in CD4-positive (CD4+) T cells” for “measured”, “Center) using flow cytometry.” for “Center).”
CD4+ T cells were identified using a […] (PE) conjugated anti-CD4 antibody (Clone RPA-T4, BD Biosciences), while an Alexa Fluor 647 conjugated anti-pSTAT5 antibody (pY694, Clone 47, BD Biosciences) was used to detect STATS phosphorylation.
(1) The protocol of Assay 7 paragraph (1) was followed with the exception that the cytokine stimulation with anti-CD3 was performed for 30 min instead of 24 h.
(2) After cytokine stimulation, cells were fixed with pre warmed fix solution (200 μL; BD Biosciences) for 10 min at 37° C., 5% CO2, washed twice with DPBS buffer (1 mL, Life Technologies), and resuspended in ice cold Perm Buffer III (1000 μL, BD Biosciences) for 30 min at 4° C. Cells were washed twice with 2% FBS in DPBS (FACS buffer), and then resuspended in FACS buffer (100 μL) containing anti-CD4 PE (1:50 dilution) and anti-CD3 […] (1:5 dilution) for 60 min at room temperature in the dark. After incubation, cells were washed twice in FACS buffer before being analyzed using a LSRII flow cytometer (BD Biosciences). To determine the inhibitory potency of test compounds in response to IL-2/anti-CD3, the median fluorescent intensity (MFI) of pSTAT5 was measured in CD4+ T cells. IC50 values were determined from analysis of the inhibition curves of MFI vs compound concentration. Data are expressed as pIC50 (negative decadic logarithm IC50) values.

[3] = test system: IL-13 induced STAT6 phosphorylation in BEAS-2B human lung epithelial cells; assay: Cellular JAKI potency assay (AlphaScreen, BEAS-2B); conditions: BEAS-2B cells
Experimental: The AlphaScreen JAKI cellular potency assay was carried out by measuring interleukin-13 (IL-13, R&D Systems) induced STAT6 phosphorylation in BEAS-2B human lung epithelial cells (ATCC). The anti-STAT6 antibody (Cell Signaling Technologies) was conjugated to AlphaScreen acceptor beads (Perkin Elmer), while the anti-pSTAT6 (pTyr641) antibody (Cell Signaling Technologies) was biotinylated using EZ-Link Sulfo-NHS-Biotin (Thermo Scientific).
BEAS-2B cells were grown at 37° C. in a 5% CO2 humidified incubator in 50% DMEM/50% F-12 medium (Life Technologies) supplemented with 10% FBS (Hyclone), 100 U/mL penicillin, 100 μg/mL streptomycin (Life Technologies), and 2 mM GlutaMAX (Life Technologies). On day 1 of the assay, cells were seeded at a 7,500 cells/well density in white poly-D-lysine-coated 384-well plates (Corning) with 25 μL medium, and were allowed to adhere overnight in the incubator. On day 2 of the assay, the medium was removed and replaced with 12 μL of assay buffer (Hank's Balanced Salt Solution/HBSS, 25 mM HEPES, and 1 mg/ml bovine serum albumin/BSA) containing dose-responses of test compounds. Compounds were serially diluted in DMSO and then diluted another 1000-fold in media to bring the final DMSO concentration to 0.1%. Cells were incubated with test compounds at 37° C. for 1 h, and followed by the addition of 12 μl of pre-warmed IL-13 (80 ng/mL in assay buffer) for stimulation. After incubating at 37° C. for 30 min, the assay buffer (containing compound and IL-13) was removed, and 10 μL of cell lysis buffer (25 mM HEPES, 0.1% SDS, 1% NP-40, 5 mM MgCl2, 1.3 mM EDTA, 1 mM EGTA, and supplement with Complete Ultra mini protease inhibitors and PhosSTOP from Roche Diagnostics). The plates were shaken at ambient temperature for 30 min before the addition of detection reagents. A mixture of biotin-anti-pSTAT6 and anti-STAT6 conjugated acceptor beads was added first and incubated at ambient temperature for 2 h, followed by the addition of streptavidin conjugated donor beads (Perkin Elmer). After a minimum of 2 h incubation, the assay plates were read on the EnVision plate reader. AlphaScreen luminescence signals were recorded and utilized to calculate the percent inhibition values based on DMSO and background controls.
For dose-response analysis, percent inhibition data were plotted vs. compound concentrations, and IC50 values were determined from a 4-parameter robust fit model with the Prism software. Results may also be expressed as the negative logarithm of the IC50 value, pIC50.
Test compounds having a lower IC50 value or higher pIC50 value in this assay show greater inhibition of IL-13 induced STAT6 phosphorylation.

| SMILES | IC50 [1] [nM] | IC50 [2] [nM] | IC50 [3] [nM] |
| --- | --- | --- | --- |
| CCCN1Cc2[nH]c(-c3n[nH]c4cc(-c5cc(F)c(O)cc5CC)ccc34)nc2C[C@H]1C(=O)N1C[C@@H]2C[C@H]1CN2C [Example 1, ((S)-2-(6-(2-ethyl-5-fluoro-4-hydroxyphenyl)-1H-indazol-3-yl)-5-propyl-4,5,6,7-tetrahydro-3H-imidazo[4,5-c]pyridin-6-yl)((1S,4S)-5-methyl-2,5-diazabicyclo-[2.2.1]heptan-2-yl)methanone] | ~126 | ~50.1 | 5 |
| CCc1cc(O)c(F)cc1-c1ccc2c(-c3nc4c([nH]3)CN(CC)[C@@H](C(=O)N3CCN(C(C)(C)C)CC3)C4)n[nH]c2c1 [Example 1-37] | ~63.1 | ~7.94 | 5.9 |
| CCc1cc(O)c(F)cc1-c1ccc2c(-c3nc4c([nH]3)CN(C(C)C)[C@H](C(=O)N3CC[C@H](N(C)C)C3)C4)n[nH]c2c1 [Example 3] | ~63.1 | ~20 | 5.9 |

Source: patent US10208040B2, “Fused imidazo-piperidine JAK inhibitors” (THERAVANCE BIOPHARMA R&D IP, LLC, priority 2017, dated 2019)
